Laboratory results published in US20100212036A1, “SELECTIVE INHIBITION OF HISTONE DEACETYLASES 1 AND 2 AS A TREATMENT FOR CARDIAC HYPERTROPHY” (priority 2008, published 2010).
Blank lines part the entries; values can stand above or below the molecule they belong to.

Columns and labels:
HDAC3 = HDAC3 expression in settings of hypertrophy and failure; format: in vivo; settings: following infusion; data not shown
cardiomyocytes = settings: treatment of cardiomyocytes with HDAC inhibitors; cited from earlier work
PPARα-responsive genes = assay: Real-time RT-PCR of PPARα target genes in hearts of wild-type and HDAC3cKO mice after Wy14,643; format: in vivo; settings: 50 mg/kg single intraperitoneal injection
Method: FIGS. 5A-E. Aberrant expression of cardiac metabolism genes from cardiac deletion of HDAC3. (FIG. 5A) Microarray analysis was performed at 5 weeks and gene ontology analysis was performed with PANTHER. […] (FIG. 5B) PPAR-regulated mitochondrial uncoupling genes are increased in HDAC3cKO mice. […] (FIG. 5E) Glucose metabolism is decreased in HDAC3cKO hearts. For (FIGS. 5B-E), real-time RT-PCR was performed from LV RNA of 6-week-old wild-type and HDAC3cKO mice in absence or presence of Wy14,643. Transcript levels were normalized to 18S Ribosomal RNA. KO, HDAC3cKO. Error bars represent standard deviation.
RT-PCR and microarray. For all gene expression analyses from wild-type and HDAC3cKO mice, 4 wild-type and 4 HDAC3cKO hearts were isolated and analyzed. Total RNA was purified using TRIzol reagent according to manufacturer's instructions. For RT-PCR, total RNA was used for reverse transcriptase using random hexamer primers. Primer sequences are available upon request. Quantitative real time PCR was performed using Taqman probes purchased from ABI. For microarray, RNA was extracted from either 3 wild-type or HDAC3cKO hearts and subsequently pooled prior to analysis. Microarray analysis was performed using the Mouse Genome 430 2.0 Array (Affymetrix). All heart RNA was from ventricle tissue only. Microarray analysis was performed by the UT Southwestern Microarray Core Facility using the Mouse Genome 430 2.0 Array (Affymetrix) as described (Davis et al., 2006)
Animal studies. For fasting studies, male HDAC3cKO and wild-type littermates were fasted for 24 hrs. After 24 hrs, mice were sacrificed, hearts extracted, and prepared for Oil Red O staining. Control mice were allowed standard chow ad libitum. Wy14,643 (Biomol) (50 mg/kg body weight) in 50% DMSO/saline was administered as a single intraperitoneal injection. Control littermates were administered vehicle and hearts were extracted 8 hrs after injection. All animal studies were approved by the IACUC of the University of Texas Southwestern Medical Center.

[1] = hearts 8 hrs after injection, vs baseline
[2] = HDAC3cKO mice, LV RNA, hearts extracted 8 hrs after injection, vs baseline

Molecule: angiotensin
HDAC3 expression levels (HDAC3): not significantly altered

Molecule: CCCC(CCC)C(=O)O [VPA]
activation of the fetal gene program (cardiomyocytes): dose-dependentle block activation
hypertrophic response (cardiomyocytes): block the hypertrophic response

ACOX (acyl-CoA oxidase 1) expression (PPARα-responsive genes; HDAC3cKO hearts): further up-regulated
Molecule: Cc1cccc(Nc2cc(Cl)nc(SCC(=O)O)n2)c1C [Wy14,643]
CD36 transcript level (PPARα-responsive genes; [1]): up-regulated
FACS (Acsl1) transcript level (PPARα-responsive genes; [1]): up-regulated
FATP (Slc27a1) transcript level (PPARα-responsive genes; [1]): up-regulated
GLUT4 expression (PPARα-responsive genes; HDAC3cKO mice): further decreased
PDK4 expression (PPARα-responsive genes; HDAC3cKO mice): further elevated
UCP2 transcript level (PPARα-responsive genes; [2]): induction was increased
UCP3 transcript level (PPARα-responsive genes; [2]): induction was increased
mCPT-1 transcript levels (PPARα-responsive genes; wild-type or HDAC3cKO hearts): had no effect

Molecule: CC(/C=C/C(=O)NO)=C\[C@@H](C)C(=O)c1ccc(N(C)C)cc1 [TSA]
activation of the fetal gene program (cardiomyocytes): dose-dependentle block activation
hypertrophic response (cardiomyocytes): block the hypertrophic response

Molecule: CC(C)NCC(O)c1ccc(O)c(O)c1 (stereo not drawn) [isoproterenol]
HDAC3 expression levels (HDAC3): decreased
